From BindingDB's records for doi:10.1016/j.bmcl.2009.04.124 (H. Lee Moffitt Cancer Center, 2009)

Target: E3 ubiquitin-protein ligase Mdm2 (Homo sapiens, UniProt Q00987)
Assay: AlphaScreen Assay
Settings: pH 7.4; 24 °C
Method: When two proteins interact (one of which is conjugated to the donor bead and the other to the acceptor bead) the beads are brought into close proximity. Excitation of a photosensitizer in the donor bead results in the production of singlet oxygen that diffuses to and reacts with a chemiluminescent molecule in the acceptor bead. […] Nickel acceptor beads and glutathione donor beads were added. Following 1 h incubation at 24 deg C, the mixture was analyzed in a fluorometer at an excitation wavelength of 680 nm. Nutlin-3a obtained from Cayman Chemical was used as a control. The IC50 values reported are from runs repeated four times.

E3 ubiquitin-protein ligase Mdm2, sequence (Q00987 whole entry): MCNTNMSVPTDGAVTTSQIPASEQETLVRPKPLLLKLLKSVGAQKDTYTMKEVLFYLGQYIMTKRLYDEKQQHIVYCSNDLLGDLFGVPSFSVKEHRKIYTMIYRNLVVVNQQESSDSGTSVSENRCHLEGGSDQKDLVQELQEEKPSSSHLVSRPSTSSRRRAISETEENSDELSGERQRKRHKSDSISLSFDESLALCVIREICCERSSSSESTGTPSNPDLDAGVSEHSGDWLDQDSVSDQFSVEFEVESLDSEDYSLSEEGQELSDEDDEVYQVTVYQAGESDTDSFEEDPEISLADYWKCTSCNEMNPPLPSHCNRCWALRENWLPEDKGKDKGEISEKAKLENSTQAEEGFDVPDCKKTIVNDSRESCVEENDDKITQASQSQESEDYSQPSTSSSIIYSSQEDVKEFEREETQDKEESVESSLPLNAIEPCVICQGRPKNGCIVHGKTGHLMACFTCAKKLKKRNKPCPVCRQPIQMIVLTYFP

IC50: 25 µM
Structure (SMILES): c1ccc(C(N=Nc2nc3ccccc3s2)c2ccccn2)cc1 (stereo unspecified) [NSC-333003]
